The compounds below were run against T1, hT1R2/hT1R3 sweet receptor (Homo sapiens, UniProt Q7RTX0+Q8TE23) (assay: In vitro hT1R2/hT1R3 sweet taste receptor activation assay (FLIPR, dose response)). Details: Table E, Sweet Enhancer Amides; read-out: Sweet EC50.
T1 construct: expressed in transfected cells; host or cells: HEK293 derivative stably expressing Gα15, clone S-9
T1 sequence (Q8TE23 20-839): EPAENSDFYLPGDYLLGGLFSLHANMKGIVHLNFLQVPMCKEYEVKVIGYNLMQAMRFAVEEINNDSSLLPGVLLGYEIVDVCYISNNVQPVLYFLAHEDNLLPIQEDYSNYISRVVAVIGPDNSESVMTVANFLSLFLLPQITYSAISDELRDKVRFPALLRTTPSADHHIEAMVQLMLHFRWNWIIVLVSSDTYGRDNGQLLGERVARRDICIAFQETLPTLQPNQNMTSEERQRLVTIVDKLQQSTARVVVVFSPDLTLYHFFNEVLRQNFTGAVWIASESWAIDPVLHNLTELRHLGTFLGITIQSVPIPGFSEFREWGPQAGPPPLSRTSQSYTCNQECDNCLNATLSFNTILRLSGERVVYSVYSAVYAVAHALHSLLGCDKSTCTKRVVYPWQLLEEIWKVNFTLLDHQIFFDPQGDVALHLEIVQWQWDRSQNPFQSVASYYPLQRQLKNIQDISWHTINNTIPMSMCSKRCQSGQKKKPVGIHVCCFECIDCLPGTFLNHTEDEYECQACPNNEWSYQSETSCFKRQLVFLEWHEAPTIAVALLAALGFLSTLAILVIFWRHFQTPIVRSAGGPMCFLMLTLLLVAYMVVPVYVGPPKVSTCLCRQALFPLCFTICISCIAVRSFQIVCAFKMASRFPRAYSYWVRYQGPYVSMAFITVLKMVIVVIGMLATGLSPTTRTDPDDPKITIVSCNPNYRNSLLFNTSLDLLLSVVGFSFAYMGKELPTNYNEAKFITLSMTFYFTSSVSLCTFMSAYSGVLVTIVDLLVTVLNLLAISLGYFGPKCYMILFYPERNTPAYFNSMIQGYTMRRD
T1 sequence (Q7RTX0 21-852): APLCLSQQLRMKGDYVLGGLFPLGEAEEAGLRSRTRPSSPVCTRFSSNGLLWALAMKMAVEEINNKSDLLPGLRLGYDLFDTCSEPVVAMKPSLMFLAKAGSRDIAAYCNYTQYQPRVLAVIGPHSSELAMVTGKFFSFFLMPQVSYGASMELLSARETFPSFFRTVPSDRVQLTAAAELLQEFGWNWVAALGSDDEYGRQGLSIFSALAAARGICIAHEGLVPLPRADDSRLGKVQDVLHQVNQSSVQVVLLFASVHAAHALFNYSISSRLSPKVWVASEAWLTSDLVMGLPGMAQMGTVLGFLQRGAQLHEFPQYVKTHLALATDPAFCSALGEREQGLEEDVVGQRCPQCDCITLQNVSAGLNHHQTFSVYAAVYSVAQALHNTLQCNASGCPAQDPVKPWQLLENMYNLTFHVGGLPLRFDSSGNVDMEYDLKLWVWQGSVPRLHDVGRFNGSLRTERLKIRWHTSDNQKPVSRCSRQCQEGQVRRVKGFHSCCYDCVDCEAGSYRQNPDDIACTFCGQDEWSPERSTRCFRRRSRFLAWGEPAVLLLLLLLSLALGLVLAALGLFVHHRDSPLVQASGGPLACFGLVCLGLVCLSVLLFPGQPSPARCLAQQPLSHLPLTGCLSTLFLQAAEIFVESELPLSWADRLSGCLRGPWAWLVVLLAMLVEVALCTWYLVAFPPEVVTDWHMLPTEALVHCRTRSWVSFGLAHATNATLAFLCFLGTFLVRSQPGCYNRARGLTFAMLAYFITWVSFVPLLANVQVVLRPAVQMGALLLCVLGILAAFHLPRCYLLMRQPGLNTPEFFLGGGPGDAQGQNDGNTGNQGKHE
Format: cell-based
Method: Activity was determined using an automated fluorometric imaging assay on a FLIPR instrument (Fluorometric Intensity Plate Reader, Molecular Devices, Sunnyvale, Calif.) (designated FLIPR assay). […] S-9 cells were grown for 24 hours at 37° C. S-9 cells were then loaded with the calcium dye Fluo-3AM (Molecular Probes, Eugene, Oreg.), 4 µM in a phosphate buffered saline (D-PBS) (Invitrogen, Carlsbad, Calif.), for 1 hour at room temperature. After replacement with 25 µl D-PBS, stimulation was performed in the FLIPR instrument and at room temperature by the addition of 25 µl D-PBS supplemented with different stimuli at concentrations corresponding to twice the desired final level.
For dose-responses analysis, stimuli were presented in duplicates at 10 different concentrations ranging from 60 nM to 30 µM. Activities were normalized to the response obtained with 400 mM D-fructose, a concentration that elicits maximum receptor response. EC50s were determined using a non-linear regression algorithm (using a Senomyx, Inc. software), where the Hill slope, bottom asymptotes and top asymptotes were allow to vary.

Row | SMILES | EC50 [µM]
1 | O=C(N[C@@H]1CCCc2ccccc21)c1cccc(Cl)c1O [Example E2, (R)-3-chloro-2-hydroxy-N-(1,2,3,4-tetrahydronaphthalen-1-yl)benzamide] | 0.65
2 | O=C(NC1CCCc2c(O)cccc21)c1cccc(Cl)c1O (stereo not shown) [Example E3, 3-chloro-2-hydroxy-N-(5-hydroxy-1,2,3,4-tetrahydronaphthalen-1-yl)benzamide] | 1.03
3 | CC1CCC(NC(=O)c2cccc(Cl)c2O)c2ccccc21 (stereo not shown) [Example E4, 3-chloro-2-hydroxy-N-(4-methyl-1,2,3,4-tetrahydronaphthalen-1-yl)benzamide] | 1.61

Now from value to compound:

Row | EC50 [µM] | SMILES
4 | 0.19 | CC1CCc2ccccc2C1NC(=O)c1cccc(Cl)c1O (stereo not shown) [Example E1, 3-chloro-2-hydroxy-N-(2-methyl-1,2,3,4-tetrahydronaphthalen-1-yl)benzamide]
5 | 1.61 | COc1ccc2c(c1)CCCC2NC(=O)c1cccc(Cl)c1O (stereo not shown) [Example E5, 3-chloro-2-hydroxy-N-(6-methoxy-1,2,3,4-tetrahydronaphthalen-1-yl)benzamide]

Same assay, conditions: read-out: EC50 for activation of a hT1R2/hT1R3 sweet receptor expressed in an HEK293 cell line

Row | SMILES | EC50 [µM]
6 | Cc1cccc(C)c1C(=O)NC1CCCCC1C (stereo not shown) [Example 168, 2,6-dimethyl-N-(2-methylcyclohexyl)benzamide] | 1.88
7 | COc1cc(C)c(C(=O)NC2CCCCC2C)c(C)c1 (stereo not shown) [Example 169, 4-methoxy-2,6-dimethyl-N-(2-methylcyclohexyl)benzamide] | 2.1
8 | O=C(N[C@@H]1CCCc2ccccc21)c1ccoc1 [Example 170, (R)-N-(1,2,3,4-tetrahydronaphthalen-1-yl)furan-3-carboxamide] | 6.6
9 | CCOc1cccc2c1CCCC2NC(=O)c1conc1C (stereo not shown) [Example 181] | 4.5
10 | Cc1cccc2c1CCC[C@H]2NC(=O)c1conc1C [Example 182, (R)-3-Methyl-N-(5-methyl-1,2,3,4-tetrahydronaphthalen-1-yl)isoxazole-4-carboxamide] | 2.8
11 | O=C(N[C@@H]1CCOc2ccccc21)c1cccc(Cl)c1O [Example 185, (R)-3-Chloro-N-(3,4-dihydro-2H-chromen-4-yl)-2-hydroxybenzamide] | 1.03
12 | CCc1nocc1C(=O)N[C@@H]1CCCc2c(OC)cccc21 [Example 187, (R)-3-Ethyl-N-(5-methoxy-1,2,3,4-tetrahydronaphthalen-1-yl)isoxazole-4-carboxamide] | 0.4
13 | CCCc1nocc1C(=O)N[C@@H]1CCCc2c(OC)cccc21 [Example 188, (R)-3-Propyl-N-(5-methoxy-1,2,3,4-tetrahydronaphthalen-1-yl)isoxazole-4-carboxamide] | 0.24
14 | CCCCc1nocc1C(=O)N[C@@H]1CCCc2c(OC)cccc21 [Example 189, (R)-3-Butyl-N-(5-methoxy-1,2,3,4-tetrahydronaphthalen-1-yl)isoxazole-4-carboxamide] | 0.36
15 | COc1cccc2c1CCC[C@H]2NC(=O)c1conc1C [Example 190, (R)-3-methyl-N-(5-methoxy-1,2,3,4-tetrahydronaphthalen-1-yl)isoxazole-4-carboxamide] | 0.95
16 | C=CCc1c(F)c(F)c(C(=O)N[C@@H](C)C(C)C)c(F)c1F [Example 191, (S)-4-allyl-2,3,5,6-tetrafluoro-N-(3-methylbutan-2-yl)benzamide] | 0.14
17 | CCCc1c(F)c(F)c(C(=O)N[C@@H](C)C(C)C)c(F)c1F [Example 192, (S)-2,3,5,6-tetrafluoro-N-(3-methylbutan-2-yl)-4-propylbenzamide] | 0.14
18 | CSc1cc(C)c(C(=O)N[C@H](C)C(C)(C)C)c(C)c1 [Example 200, (R)-N-(3,3-dimethylbutan-2-yl)-2,6-dimethyl-4-(methylthio)benzamide] | 1.02
19 | CCCOc1cc(C)c(C(=O)NC2CCCCC2C)c(C)c1 (stereo not shown) [Example 201, 2,6-dimethyl-N-(2-methylcyclohexyl)-4-propoxybenzamide] | 0.69

Second part, the compound after the results:

Row | EC50 [µM] | SMILES
20 | 0.6 | Cc1c(F)c(F)c(C(=O)N[C@@H](C)C(C)C)c(F)c1F [Example 163, (S)-2,3,5,6-tetrafluoro-4-methyl-N-(3-methylbutan-2-yl)benzamide]
21 | 0.89 | Cc1cc(Cl)ccc1NC(=O)N1Cc2ccccc2C1 [Example 172, N-(4-chloro-2-methylphenyl)isoindoline-2-carboxamide]
22 | 4.5 | COc1ccc(NC(=O)N2Cc3ccccc3C2)c(C)c1 [Example 173, N-(4-methoxy-2-methylphenyl)isoindoline-2-carboxamide]
23 | 1.48 | Cc1ccc2c(c1)C(NC(=O)c1cccc(Cl)c1O)CCC2 (stereo not shown) [Example 178, 3-Chloro-2-hydroxy-N-(7-methyl-1,2,3,4-tetrahydronaphthalen-1-yl)benzamide]
24 | 0.38 | CC1CCc2ccccc2C1NC(=O)c1cccc(Cl)c1O (stereo not shown) [Example 179, 3-Chloro-2-hydroxy-N-(2-methyl-1,2,3,4-tetrahydronaphthalen-1-yl)benzamide]
25 | 0.26 | COc1ccc2c(c1)[C@H](NC(=O)c1cccc(Cl)c1O)CCC2 [Example 184, (R)-3-Chloro-2-hydroxy-N-(7-methoxy-1,2,3,4-tetrahydronaphthalen-1-yl)benzamide]
26 | 0.5 | COc1cccc2c1CCC(C)C2NC(=O)c1cccc(Cl)c1O (stereo not shown) [Example 186, 3-Chloro-2-hydroxy-N-(5-methoxy-2-methyl-1,2,3,4-tetrahydronaphthalen-1-yl)benzamide]
27 | 0.02 | Cc1cccc2c1CN(C(=O)Nc1c(F)cc(Br)cc1F)C2 [Example 193, N-(4-bromo-2,6-difluorophenyl)-4-methylisoindoline-2-carboxamide]
28 | 0.06 | Cc1cc(F)c(NC(=O)N2Cc3cccc(C)c3C2)c(F)c1 [Example 194, N-(2,6-difluoro-4-methylphenyl)-4-methylisoindoline-2-carboxamide]
29 | 0.067 | COc1cc(F)c(NC(=O)N2Cc3cccc(C)c3C2)c(F)c1 [Example 195, N-(2,6-difluoro-4-methoxyphenyl)-4-methylisoindoline-2-carboxamide]
30 | 1.07 | O=C(Nc1c(F)cc(Br)cc1F)N1Cc2cccc([N+](=O)[O-])c2C1 [Example 196, N-(4-Bromo-2,6-difluorophenyl)-4-nitroisoindoline-2-carboxamide]
31 | 0.52 | Cc1ccc2c(c1)CN(C(=O)Nc1c(F)cc(Br)cc1F)C2 [Example 197, N-(4-Bromo-2,6-difluorophenyl)-5-methylisoindoline-2-carboxamide]
32 | 0.42 | O=C(Nc1c(F)cc(Br)cc1F)N1Cc2ccc(Br)cc2C1 [Example 198, 5-Bromo-N-(4-bromo-2,6-difluorophenyl)isoindoline-2-carboxamide]
33 | 0.95 | Cc1cccc2c1CN(C(=O)Nc1ccc3c(c1)OCO3)C2 [Example 199, N-(3,4-(methylenedioxy)phenyl)-4-methylisoindoline-2-carboxamide]
34 | 1.02 | Cc1cc(-c2ccco2)cc(C)c1C(=O)NC1CCCCC1C (stereo not shown) [Example 202, 4-(furan-2-yl)-2,6-dimethyl-N-(2-methylcyclohexyl)benzamide]
